Laboratory results: ChEMBL document CHEMBL4007494, “Structural Basis of Small-Molecule Aggregate Induced Inhibition of a Protein-Protein Interaction” (J Med Chem, 2017)
Activity calls are given as the source filed them. No cut-off for these calls is given here.

Assays:
[1] = Critical aggregation concentration assessed as formation of aggregate after 30 mins in presence of triton X-100 by light scattering method
[2] = Critical aggregation concentration assessed as formation of aggregate after 30 mins by light scattering method
Tumor necrosis factor [3] = molecular target: T1, Tumor necrosis factor (Homo sapiens, UniProt P01375); experiment: Binding affinity to human TNF-alpha soluble domain assessed as decrease in complex formation with human TNFR2 extracellular domain preincubated for 1 hr followed by receptor addition measure after 2 hrs by TR-FRET assay
T1 sequence (P01375 whole entry, the tested form may be a part): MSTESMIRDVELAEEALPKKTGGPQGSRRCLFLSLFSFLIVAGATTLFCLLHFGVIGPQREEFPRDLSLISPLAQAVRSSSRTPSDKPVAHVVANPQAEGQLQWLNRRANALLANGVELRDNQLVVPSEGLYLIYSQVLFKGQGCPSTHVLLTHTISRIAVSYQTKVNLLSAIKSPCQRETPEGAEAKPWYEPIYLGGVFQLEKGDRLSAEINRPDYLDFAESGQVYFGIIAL

Tumor necrosis factor [4] = molecular target: T1, Tumor necrosis factor; settings: 50 uM
Description: Binding affinity to human TNF-alpha soluble domain assessed as sedimentation velocity constant s20,w at 50 uM after 3 hrs by ultracentrifugation method

Tumor necrosis factor [5] = molecular target: T1, Tumor necrosis factor; experiment: Binding affinity to human TNF-alpha soluble domain assessed as decrease in complex formation with human TNFR1 extracellular domain preincubated for 1 hr followed by receptor addition measure after 2 hrs by TR-FRET assay

| SMILES | CAC [1] | CAC [2] | IC50 (Tumor necrosis factor [3]) | S20,w (Tumor necrosis factor [4]) | IC50 (Tumor necrosis factor [5]) |
| --- | --- | --- | --- | --- | --- |
| Clc1ccc(COC(Cn2ccnc2)c2ccc(Cl)cc2Cl)c(Cl)c1 (stereo not drawn) | inactive | Dose-dependent effect | – | – | – |
| Nc1nccc(N(Cc2ccccc2)c2ccccc2-c2cccc(-c3cnc(N4CCNCC4)nc3)c2)n1 | inactive | 1 µM | 1100 nM | 3.09 | 1200 nM |
| Cc1cc2occ(CN(C)CCN(C)Cc3cn(-c4cccc(C(F)(F)F)c4)c4ccccc34)c(=O)c2cc1C | – | 10 µM | – | – | – |
